Read-outs that look alike come from different tables or passages of the source.
Assays:
[1] = Surface tension, Gibbs isotherm (Kibron μTrough S); type: physicochemical; conditions: FIG. 3
Description: The surface tension of a solution can give important information about its behavior as a surfactant. Measuring the surface tension of a series of aqueous solutions of a molecule and plotting the measured surface tension results versus the logarithm of the concentrations of the series of aqueous solutions yields a plot known as a Gibbs isotherm. From the Gibbs isotherm, one can obtain the critical micelle concentration (CMC) of a surfactant as well as the surface tension at the CMC, two parameters that can indicate the behavior of a surfactant.
For each molecule studied, 14 solutions were prepared so that each solution was half the concentration of the previous solution. Another solution that consisted of only deionized water was used as a reference. Therefore, a total of 15 solutions were studied for each molecule.

Crabgrass = experiment: Field trial Example 7, % kill; type: in vivo; conditions: isopropyl ammonium glyphosate 360 g a.e./l
Description: (§1) The C14 DMAPA MeCl Esterquat formulation was prepared as follows: About 32.3 grams of a solution of the isopropyl ammonium salt of glyphosate, which was about 46.5% by weight acid equivalent (a.e.) of glyphosate and about 6.2 grams of deionized water, were added in a 4-ounce jar. Then, about 7.5 grams of the C14 DMAPA MeCl Esterquat and about 4 grams of propylene glycol were slowly added to the jar with stirring.
(§2) Samples of the formulations as made above were applied to subject plants at two application rates, 90% and 45% of the label rate of RoundUp® Ultra, available from Monsanto Company, St. Louis, Mo. RoundUp® Ultra contains about 360 g a.e./l of isopropyl ammonium glyphosate salt and about 15% by weight of a blend of surfactants. The precise identity of the surfactants has not been disclosed.
(§3) Eight plant species were selected for the study. They include (1) Bamyardgrass, (2) Redroot pigweed, (3) Morning glory ivyleaf, (4) Sicklepod, (5) Panicum, (6) Crabgrass, (7) Velvetleaf, and (8) Sunflower. The tests were performed in a randomized complete block design with 5 replicates of each species of plant. Plants were grown in square plastic pots, 3.75 inches×3.75 inches and 3.125 inches deep. Prior to treatment, 5 replicate pots were indiscriminately selected for each treatment and plant species. Treatments were applied as foliar applications with a hand pump sprayer equipped with 1 nozzle calibrated to deliver 15 gallons per acre. All spraying tests included a set of 5 untreated control plants from each species.

Sicklepod = experiment: Field trial Example 7, % kill; type: in vivo; conditions: isopropyl ammonium glyphosate 360 g a.e./l
Description: as §1, §2, §3

Morning glory, ivyleaf = experiment: Field trial Example 7, % kill; type: in vivo; conditions: isopropyl ammonium glyphosate 360 g a.e./l
Description: as §1, §2, §3

Panicum, fall = experiment: Field trial Example 7, % kill; type: in vivo; conditions: isopropyl ammonium glyphosate 360 g a.e./l
Description: as §1, §2, §3

Redroot pigweed = experiment: Field trial Example 7, % kill; type: in vivo; conditions: isopropyl ammonium glyphosate 360 g a.e./l
Description: as §1, §2, §3

Sunflower = experiment: Field trial Example 7, % kill; type: in vivo; conditions: isopropyl ammonium glyphosate 360 g a.e./l
Description: as §1, §2, §3

Barnyardgrass = experiment: Field trial Example 7, % kill; type: in vivo; conditions: isopropyl ammonium glyphosate 360 g a.e./l
Description: as §1, §2, §3

Velvetleaf = experiment: Field trial Example 7, % kill; type: in vivo; conditions: isopropyl ammonium glyphosate 360 g a.e./l
Description: as §1, §2, §3

all 8 species = experiment: Field trial of phytotoxicity enhancement, isopropyl ammonium glyphosate formulations (Example 7), sum over species; type: in vivo; conditions: foliar, isopropyl ammonium glyphosate 360 g a.e./l, 15% surfactant
Description: as §1, §2
as §3, with “Treatments were applied as foliar applications with a hand pump sprayer equipped with 1 nozzle calibrated to deliver 15 gallons per acre. All spraying tests included a set of 5 untreated control plants from each species.” left out

[2] = acid form, 25° C., cited from earlier work

## CCCCCCCCCCCCCC(=O)NCCC[N+](C)(C)C.[Cl-] [C14 DMAPA MeCl Esterquat]
[1]
  surface activity, compared with C14 DMAPA MeCl Esterquat: higher surface activity
Crabgrass; high (90%) application rate
  % kill: 100%
Crabgrass; low (45%) application rate
  % kill: 100%
Sicklepod; high (90%) application rate
  % kill: 33%
Sicklepod; low (45%) application rate
  % kill: 22%
Morning glory, ivyleaf; high (90%) application rate
  % kill: 84%
Morning glory, ivyleaf; low (45%) application rate
  % kill: 53%
Panicum, fall; high (90%) application rate
  % kill: 95%
Panicum, fall; low (45%) application rate
  % kill: 90%
Redroot pigweed; high (90%) application rate
  % kill: 100%
Redroot pigweed; low (45%) application rate
  % kill: 100%
Sunflower; high (90%) application rate
  % kill: 100%
Sunflower; low (45%) application rate
  % kill: 100%
Barnyardgrass; high (90%) application rate
  % kill: 100%
Barnyardgrass; low (45%) application rate
  % kill: 99%
Velvetleaf; high (90%) application rate
  % kill: 96%
Velvetleaf; low (45%) application rate
  % kill: 96%
All 8 species; 45% of RoundUp Ultra label rate
  Sum of % kill of all 8 species at low (45%) application rate: 660%
All 8 species; 90% of RoundUp Ultra label rate
  Sum of % kill of all 8 species at high (90%) application rate: 708%

## O=C(O)CNCP(=O)(O)O [Glyphosate, N-(phosphonomethyl)glycine]
[2]
  solubility in water: 1.16 % by weight
[2]; listed as glyphosate
  solubility in water: about 1.16 % by weight
